Where two headings read alike, the source gives them in different places.
Assays:
HCMV Strain AD169 = assay: Viral qPCR assay, HCMV; assay type: cell-based, Human cytomegalovirus; details: MRC-5 cells, 0.05-0.1 pfu/cell, growth media or 50% fetal bovine serum, viral genome copies by qPCR, read-out: CMV Cell (EC50)
Method in brief: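 HCMV AD169 at 0.05-0.1 pfu/cell infected MRC-5 cells, added to 10-point 3-fold compound dilutions, in growth medium or medium with 50% FBS; ~72 h at 37°C. Viral genome copies by TaqMan qPCR against plasmid standard curve, normalized to DMSO and uninfected controls; EC50 from 4-parameter fit.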

[1] = molecular target: T1, Human cytomegalovirus DNA polymerase (Human cytomegalovirus, UniProt P08546); assay: CMV polymerase assay (AlphaLISA); assay type: biochemical; details: HCMV polymerase 0.2 nM; 30 min pre-incubation; 60 min at 37° C.; read-out: CMV (IC50)
T1 construct: made in house; host or cells: SF21 insect cells (baculovirus vector)
Method in brief: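 Baculovirus-expressed polymerase (HCMV 0.2 nM, VZV 0.4 nM) preincubated 30 min with compound, then reacted 60 min at 37 °C with 1.6 nM DIG-primer/59-mer template and low-nM dNTPs including 0.8 nM biotin-dUTP. Incorporation detected by AlphaLISA; IC50 from a 4-parameter fit normalized to DMSO and pre-quenched controls.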

HSV-1 Strain F = assay: Viral qPCR assay, HSV-1; assay type: cell-based, Herpes Simplex Virus type 1; details: Vero or MRC5 cells, 0.0005-0.004 pfu/cell, growth medium, viral genome copies by qPCR, read-out: HSV1 Cell (EC50)
Method in brief: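 HSV-1 strain F at 0.0005–0.004 pfu/cell infected Vero or MRC5 cells, which were added to a 10-point 3-fold compound dilution and cultured ~72 h at 37 °C. Viral genomes in the lysates were quantified by TaqMan qPCR against a plasmid standard curve, in some runs normalized to cellular PPIA. EC50 came from a 4-parameter fit of % effect.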

VZV = assay: Viral qPCR assay, VZV; assay type: cell-based, varicella zoster virus; details: MeWo or MRC5 cells, 0.04-0.1 pfu/cell, growth medium, viral genome copies by qPCR
Method in brief: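 VZV strain Street at 0.04-0.1 pfu/cell infected MeWo or MRC5 cells added to 10-point, 3-fold compound dilutions; ~72 h at 37° C. Viral genome copies by TaqMan qPCR against plasmid standard curve, sometimes normalised to PPIA, scaled between uninfected and DMSO-infected controls; EC50 from 4-parameter fit.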

[2] = molecular target: T2, varicella zoster virus DNA polymerase (Varicella-zoster virus, UniProt P09252); assay: VZV polymerase assay (AlphaLISA); assay type: biochemical; details: VZV polymerase 0.4 nM; 30 min pre-incubation; 60 min at 37° C.
T2 construct: made in house; host or cells: SF21 insect cells (baculovirus vector)
Procedure: Human cytomegalovirus and varicella zoster virus DNA polymerases were expressed via baculovirus vector in SF21 cells and purified. Heterodimeric nucleic acid substrate used in the herpesvirus polymerase reactions was generated by annealing a 59-mer template to a 17-mer digoxigenin-labeled primer. Polymerase (HCMV final concentration of 0.2 nM; VZV final concentration of 0.4 nM) was combined with an inhibitor compound or DMSO in assay buffer (10 mM HEPES, pH 7.5, 25 mM KCl, 25 mM NaCl, 5 mM MgCl2, 5% glycerol, 0.67 mg/ml bovine serum albumin, and 1 mM tris(2-carboxyethyl)phosphine), and this mixture was pre-incubated for 30 minutes at room temperature in 384-well microtiter plates. The polymerization reaction was initiated by the addition of template/primer substrate (final concentration: 1.6 nM), and dNTPs (final concentration: 24 nM dCTP, 24 nMdGTP, 16 nM dATP, 16 nM dTTP, and 0.8 nM biotin-dUTP). After 60 min incubation at 37° C., reactions were terminated with quench buffer (25 mM HEPES pH 7.5, 100 mM NaCl, 0.25% Tween-20, 12 mM EDTA, and 1 mg/ml bovine serum albumin). Incorporation of biotinylated UTP was detected with 2.5-5 ug/ml anti-DIG AlphaLISA acceptor beads and 5-10 ug/ml streptavidin AlphaLISA donor beads (PerkinElmer). Compound effects were normalized to the window defined by the controls (DMSO only and pre-quenched wells) and were fit using a 4-parameter algorithm to report an IC50.

[3] = Human betaherpesvirus 5, AD169, MRC5, 72 h

T1 sequence (P08546 whole entry): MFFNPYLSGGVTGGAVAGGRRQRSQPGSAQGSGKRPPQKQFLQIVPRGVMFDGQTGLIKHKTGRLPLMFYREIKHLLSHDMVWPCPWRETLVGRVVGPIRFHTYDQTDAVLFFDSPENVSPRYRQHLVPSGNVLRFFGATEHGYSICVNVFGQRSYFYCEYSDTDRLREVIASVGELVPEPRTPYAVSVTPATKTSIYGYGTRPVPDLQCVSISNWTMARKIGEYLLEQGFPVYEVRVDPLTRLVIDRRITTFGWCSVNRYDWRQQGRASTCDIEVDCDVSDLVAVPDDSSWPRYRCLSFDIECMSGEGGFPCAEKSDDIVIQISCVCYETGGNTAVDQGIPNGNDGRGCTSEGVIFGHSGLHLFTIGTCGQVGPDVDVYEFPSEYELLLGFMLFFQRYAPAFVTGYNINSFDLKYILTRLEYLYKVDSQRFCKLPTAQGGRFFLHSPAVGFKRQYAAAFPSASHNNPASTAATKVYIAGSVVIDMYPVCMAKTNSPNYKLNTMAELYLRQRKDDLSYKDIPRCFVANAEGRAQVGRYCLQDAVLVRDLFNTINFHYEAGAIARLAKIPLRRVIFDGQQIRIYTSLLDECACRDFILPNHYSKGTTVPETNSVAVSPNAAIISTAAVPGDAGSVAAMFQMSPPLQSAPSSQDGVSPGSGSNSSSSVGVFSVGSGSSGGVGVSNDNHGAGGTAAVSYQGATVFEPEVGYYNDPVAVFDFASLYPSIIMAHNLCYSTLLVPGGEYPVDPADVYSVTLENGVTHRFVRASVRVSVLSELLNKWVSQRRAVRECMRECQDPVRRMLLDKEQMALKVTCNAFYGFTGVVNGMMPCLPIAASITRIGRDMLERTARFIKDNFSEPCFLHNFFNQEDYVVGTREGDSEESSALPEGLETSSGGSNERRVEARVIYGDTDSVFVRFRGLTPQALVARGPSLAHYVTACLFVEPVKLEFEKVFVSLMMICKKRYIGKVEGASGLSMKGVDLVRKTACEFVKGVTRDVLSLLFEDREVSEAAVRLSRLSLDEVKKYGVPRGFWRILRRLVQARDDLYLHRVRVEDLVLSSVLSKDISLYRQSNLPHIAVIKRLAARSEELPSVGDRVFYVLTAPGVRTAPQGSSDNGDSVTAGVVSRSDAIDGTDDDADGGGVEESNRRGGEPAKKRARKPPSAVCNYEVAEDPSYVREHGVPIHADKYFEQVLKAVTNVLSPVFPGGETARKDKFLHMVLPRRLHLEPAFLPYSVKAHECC
T2 sequence (P09252 whole entry): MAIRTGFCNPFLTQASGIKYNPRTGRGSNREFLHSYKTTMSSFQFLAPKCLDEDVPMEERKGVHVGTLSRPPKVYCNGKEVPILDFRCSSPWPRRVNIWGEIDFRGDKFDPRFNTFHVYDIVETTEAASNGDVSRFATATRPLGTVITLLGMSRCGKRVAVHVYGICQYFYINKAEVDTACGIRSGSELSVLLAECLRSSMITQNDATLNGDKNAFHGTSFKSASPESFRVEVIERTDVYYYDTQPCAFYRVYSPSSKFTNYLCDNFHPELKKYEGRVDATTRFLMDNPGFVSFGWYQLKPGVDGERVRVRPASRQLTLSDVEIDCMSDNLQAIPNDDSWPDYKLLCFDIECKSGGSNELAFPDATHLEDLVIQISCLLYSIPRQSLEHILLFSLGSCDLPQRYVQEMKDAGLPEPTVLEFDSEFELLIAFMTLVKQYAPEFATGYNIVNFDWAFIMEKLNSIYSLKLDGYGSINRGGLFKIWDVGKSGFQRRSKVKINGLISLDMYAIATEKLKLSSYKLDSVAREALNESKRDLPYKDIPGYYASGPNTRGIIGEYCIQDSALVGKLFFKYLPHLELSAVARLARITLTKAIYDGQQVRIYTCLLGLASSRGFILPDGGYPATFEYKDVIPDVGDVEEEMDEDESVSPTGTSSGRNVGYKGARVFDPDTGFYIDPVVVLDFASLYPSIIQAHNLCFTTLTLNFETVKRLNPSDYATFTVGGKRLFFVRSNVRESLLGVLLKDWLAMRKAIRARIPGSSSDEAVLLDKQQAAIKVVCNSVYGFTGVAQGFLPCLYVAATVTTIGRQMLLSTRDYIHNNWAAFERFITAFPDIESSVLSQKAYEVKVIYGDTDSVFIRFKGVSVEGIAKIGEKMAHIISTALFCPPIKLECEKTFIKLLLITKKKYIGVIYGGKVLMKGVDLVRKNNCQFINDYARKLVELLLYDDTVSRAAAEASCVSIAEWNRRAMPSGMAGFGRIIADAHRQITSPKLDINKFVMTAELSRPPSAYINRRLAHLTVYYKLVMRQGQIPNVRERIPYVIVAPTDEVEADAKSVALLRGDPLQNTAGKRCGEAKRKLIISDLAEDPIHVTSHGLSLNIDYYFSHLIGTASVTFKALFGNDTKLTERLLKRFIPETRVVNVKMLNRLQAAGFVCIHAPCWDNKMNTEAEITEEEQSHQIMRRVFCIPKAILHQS

Row | Compound | IC50 [1] | IC50 [2] | EC50 (HCMV Strain AD169; [3]) | EC50 (HSV-1 Strain F; Human alphaherpesvirus 1, 72 h) | EC50 (VZV; Human alphaherpesvirus 3, 72 h) | EC50 (HCMV Strain AD169; ~72 hrs) | EC50 (HSV-1 Strain F; ~72 hrs) | EC50 (VZV; ~72 hrs)
1 | COc1nc(N2CC(F)(F)C2)c(O[C@H]2CCN3C(=O)OC[C@@H]3C2)cc1C(=O)NCc1ccc(Cl)cc1 [Compound 65] | 16.4 nM | 5.28 nM | 376 nM | 877 nM | 758 nM |  |  | 
2 | COc1nc(N2CCC(C(C)(C)N)C2)c(O[C@H]2CCN3C(=O)OC[C@@H]3C2)cc1C(=O)NCc1ccc(Cl)cc1 (single isomer, unassigned) [Compound 72] | 45.5 nM | 12.4 nM |  |  |  | 276 nM | 559 nM | 665 nM
3 | COc1nc(-c2cccnc2)c(O[C@H]2CCN3C(=O)OC[C@@H]3C2)cc1C(=O)NCc1ccc(Cl)cc1 [Compound 40] | 15.9 nM | 10.2 nM | 206 nM | 123 nM | 200 nM |  |  | 
4 | COc1nc(Br)c(O[C@H]2CCN3C(=O)OC[C@@H]3C2)cc1C(=O)NCc1ccc(Cl)cc1 [Int-3] | 55.9 nM | 21.3 nM | 822 nM | 832 nM | 651 nM |  |  | 
5 | COCCOc1nc(-c2cnn(C(F)F)c2)c(O[C@H]2CCN3C(=O)OC[C@@H]3C2)cc1C(=O)NCc1ccc(Cl)cc1 [Compound 85] | 15.6 nM | 1.47 nM | 187 nM | 143 nM | 342 nM |  |  | 
6 | COc1nc(-c2nnc(C3CC3)s2)c(O[C@H]2CCN3C(=O)OC[C@@H]3C2)cc1C(=O)NCc1ccc(Cl)cc1 [Compound 83] | 11.7 nM | 6.05 nM | 153 nM | 83.5 nM | 110 nM |  |  | 
7 | COc1nc(-c2cnc(C3CC3)o2)c(O[C@H]2CCN3C(=O)OC[C@@H]3C2)cc1C(=O)NCc1ccc(Cl)cc1 [Compound 10] | 11.3 nM | 0.508 nM | 134 nM | 150 nM | 131 nM |  |  | 
8 | COc1nc(N2CC(C(C)(C)O)C2)c(O[C@H]2CCN3C(=O)OC[C@@H]3C2)cc1C(=O)NCc1ccc(Cl)cc1 [Compound 70] | 15 nM | 14.5 nM | 194 nM | 278 nM | 409 nM |  |  | 
9 | COc1nc(N2CCC(C(C)(C)N)C2)c(O[C@H]2CCN3C(=O)OC[C@@H]3C2)cc1C(=O)NCc1ccc(Cl)cc1 (single isomer, unassigned) [Compound 71] | 22.8 nM | 3.54 nM | 221 nM | 396 nM | 468 nM |  |  | 
10 | COc1nc(-c2cncnc2)c(O[C@H]2CCN3C(=O)OC[C@@H]3C2)cc1C(=O)NCc1ccc(Cl)cc1 [Compound 38] | 9.81 nM | 5.86 nM | 111 nM | 83.1 nM | 150 nM |  |  | 
11 | COc1nc(-c2cnn(Cc3ccccn3)c2)c(O[C@H]2CCN3C(=O)OC[C@@H]3C2)cc1C(=O)NCc1ccc(Cl)cc1 [Compound 15] | 12 nM | 12.9 nM | 144 nM | 233 nM | 355 nM |  |  | 

Now those with a lower IC50 [1], led by results:

Row | IC50 [1] | IC50 [2] | Compound | EC50 (HCMV Strain AD169; [3]) | EC50 (HSV-1 Strain F; Human alphaherpesvirus 1, 72 h) | EC50 (VZV; Human alphaherpesvirus 3, 72 h) | EC50 (HCMV Strain AD169; ~72 hrs) | EC50 (HSV-1 Strain F; ~72 hrs) | EC50 (VZV; ~72 hrs)
12 | 1.44 nM | 0.0412 nM | COc1nc(-c2nc(C)ns2)c(O[C@H]2CCN3C(=O)OC[C@@H]3C2)cc1C(=O)NCc1ccc(Cl)cc1 [Compound 61] | 60.1 nM | 49 nM | 70.8 nM |  |  | 
13 | 8.84 nM | 2.96 nM | CC(C)(O)COc1nc(-c2cnn(C(F)F)c2)c(O[C@H]2CCN3C(=O)OC[C@@H]3C2)cc1C(=O)NCc1ccc(Cl)cc1 [Compound 86] | 213 nM | 130 nM | 232 nM |  |  | 
14 | 4.69 nM | 1.53 nM | COc1nc(-c2cnc(N)c(F)c2)c(O[C@H]2CCN3C(=O)OC[C@@H]3C2)cc1C(=O)NCc1ccc(Cl)cc1 [Compound 46] | 165 nM | 51.6 nM | 121 nM |  |  | 
15 | 4.87 nM | 1.71 nM | COc1nc(-c2cc(C)no2)c(O[C@H]2CCN3C(=O)OC[C@@H]3C2)cc1C(=O)NCc1ccc(Cl)cc1 [Compound 9] | 111 nM | 85.7 nM | 98.4 nM |  |  | 
16 | 4.11 nM | 0.161 nM | COc1nc(-c2cnc(C)o2)c(O[C@H]2CCN3C(=O)OC[C@@H]3C2)cc1C(=O)NCc1ccc(Cl)cc1 [Compound 5] | 71.4 nM | 80.1 nM | 107 nM |  |  | 
17 | 3.16 nM | 5.38 nM | COc1nc(-c2cnn(C(F)F)c2)c(O[C@H]2CCN3C(=O)OC[C@@H]3C2)cc1C(=O)NCc1ccc(Cl)c(F)c1 [Compound 55] | 161 nM | 102 nM | 178 nM |  |  | 
18 | 8.81 nM | 8.24 nM | COc1nc(-c2ccnnc2)c(O[C@H]2CCN3C(=O)OC[C@@H]3C2)cc1C(=O)NCc1ccc(Cl)cc1 [Compound 37] | 180 nM | 144 nM | 178 nM |  |  | 
19 | 8.36 nM | 0.0532 nM | COc1nc(-c2nc(C)no2)c(O[C@H]2CCN3C(=O)OC[C@@H]3C2)cc1C(=O)NCc1ccc(Cl)cc1 [Compound 82] | 83.5 nM | 73.9 nM | 103 nM |  |  | 
20 | 6.32 nM | 0.351 nM | COc1nc(-c2cnco2)c(O[C@H]2CCN3C(=O)OC[C@@H]3C2)cc1C(=O)NCc1ccc(C#N)cc1 [Compound 60] | 29.8 nM | 65 nM | 90.4 nM |  |  | 
21 | 2.08 nM | 6.48 nM | COc1nc(-c2cnn(C(F)F)c2)c(O[C@H]2CCN3C(=O)OC[C@@H]3C2)cc1C(=O)NCc1ccc(C#N)cc1 [Compound 56] | 102 nM | 36.3 nM | 123 nM |  |  | 
22 | 3.33 nM | 0.627 nM | O=C(NCc1ccc(Cl)cc1)c1cc(O[C@H]2CCN3C(=O)OC[C@@H]3C2)c(-c2cnn(C(F)F)c2)nc1OCCO [Compound 84] | 116 nM | 113 nM | 140 nM |  |  | 
23 | 1.32 nM | 0.223 nM | COc1nc(-c2cc(C)ns2)c(O[C@H]2CCN3C(=O)OC[C@@H]3C2)cc1C(=O)NCc1ccc(Cl)cc1 [Compound 7] | 82.6 nM | 72.6 nM | 129 nM |  |  | 
24 | 4.3 nM | 0.252 nM | COc1nc(-c2ncco2)c(O[C@H]2CCN3C(=O)OC[C@@H]3C2)cc1C(=O)NCc1ccc(Cl)cc1 [Compound 62] | 73 nM | 129 nM | 157 nM |  |  | 
25 | 7.52 nM | 0.715 nM | COc1nc(-c2cnn(C(F)F)c2)c(O[C@H]2CCN3C(=O)OC[C@@H]3C2)cc1C(=O)NCc1ccc(Cl)cc1 [Compound 4] | 146 nM | 105 nM | 141 nM |  |  | 
26 | 3.69 nM | 4.84 nM | COc1nc(-c2cnn(C3CC3)c2)c(O[C@H]2CCN3C(=O)OC[C@@H]3C2)cc1C(=O)NCc1ccc(Cl)cc1 [Compound 22] | 170 nM | 93 nM | 129 nM |  |  | 
27 | 7.58 nM | 4.03 nM | COc1nc(-c2cnn3c2CCC3)c(O[C@H]2CCN3C(=O)OC[C@@H]3C2)cc1C(=O)NCc1ccc(Cl)cc1 [Compound 24] | 200 nM | 195 nM | 390 nM |  |  | 
